Reference: patent US5635593A (priority 1995, dated 1997)
“Also recorded” adds a separate entry of the source. Peptide text beside a SMILES is read from it.

biological target: T1, BK2 -receptor (Rattus norvegicus, UniProt P25023); experiment: rat uterus (RU) in vitro, antagonism of BK; details: against BK
T1 construct: guinea-pig ileum (GPI), rat uterus (RU) and rabbit jugular vein (RJV); from tissue; host or cells: rat uterus
T1 sequence (P25023 1-396): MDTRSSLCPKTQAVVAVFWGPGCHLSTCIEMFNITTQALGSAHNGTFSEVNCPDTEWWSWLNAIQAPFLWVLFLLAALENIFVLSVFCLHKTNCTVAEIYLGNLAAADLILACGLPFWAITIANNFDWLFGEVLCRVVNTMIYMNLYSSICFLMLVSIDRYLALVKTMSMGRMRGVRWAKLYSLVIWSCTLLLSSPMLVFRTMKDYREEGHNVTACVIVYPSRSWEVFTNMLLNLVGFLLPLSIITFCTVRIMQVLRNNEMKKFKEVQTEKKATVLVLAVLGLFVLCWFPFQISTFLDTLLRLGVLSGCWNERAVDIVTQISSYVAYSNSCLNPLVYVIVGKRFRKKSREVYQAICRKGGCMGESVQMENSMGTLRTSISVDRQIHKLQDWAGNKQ
Experimental: Thus, in vitro studies were performed on standard assay systems, namely, guinea-pig ileum (GPI), rat uterus (RU) and rabbit jugular vein (RJV). […] The potency of each compound was assessed as a pA2 value according to the method of Arunlakshana & Schild, Br. J. Pharmacol. Chemother., 14:48-58 (1959). The pA2 can be defined as the negative logarithm of the molar concentration of the antagonist in the presence of which the potency of the agonist is reduced two-fold, i.e., twice the amount of agonist is required to produce a given response in the presence of, than in the absence of, the antagonist. A high potency of antagonism is indicated by a high pA2 value. i.e., a low concentration of antagonist is effective.
The percentage recovery (% Rec) was also determined for compounds with respect to each assay.
With respect to duration of activity, it is noted that after exposure to the highest concentration of antagonist, each tissue was washed extensively and then assessed for recovery from the antagonist effect.
Potency in the rat uterus assay was assessed as described above and pA2 values determined.

SMILES	pA2 rat uterus (BK2)
CC(C)C[C@H](NC(=O)[C@@H]1CCCN1C(=O)[C@H](CO)NC(=O)[C@H](Cc1ccccc1)NC(=O)CNC(=O)[C@@H]1C[C@@H](O)CN1C(=O)[C@@H]1CCCN1C(=O)[C@H](CSC1CC(=O)N(CCCCCCN2C(=O)CC(SC[C@H](NC(=O)[C@H](Cc3ccccc3)NC(=O)CNC(=O)[C@@H]3C[C@@H](O)CN3C(=O)[C@@H]3CCCN3C(=O)[C@H](CCCNC(=N)N)NC(=O)[C@H](N)CCCNC(=N)N)C(=O)N[C@H](Cc3ccccc3)C(=O)N[C@@H](CC(C)C)C(=O)N[C@@H](CCCNC(=N)N)C(=O)O)C2=O)C1=O)NC(=O)[C@@H](N)CCCCN)C(=O)O (stereo partly shown) [CP-0382] (HELM PEPTIDE1{[dR].R.P.[Hyp].G.F.C.[dF].L.R}|PEPTIDE2{K.C.P.[Hyp].G.F.S.P.L}|CHEM1{[O=C1CC([*:1])C(=O)N1CCCCCCN1C(=O)CC([*:2])C1=O]}$PEPTIDE1,CHEM1,7:R3-1:R1|PEPTIDE2,CHEM1,2:R3-1:R2$$$V2.0; N-terminus and C-terminus assumed)	Agonist; also recorded: substantial partial agonism
CC(C)C[C@H](NC(=O)[C@@H](Cc1ccccc1)NC(=O)[C@H](CSC1CC(=O)N(CCCCCCN2C(=O)CC(SC[C@H](N)C(=O)N[C@@H](Cc3ccc(O)cc3)C(=O)N[C@H](Cc3c[nH]c4ccccc34)C(=O)N[C@H](C(=O)N[C@H](Cc3c[nH]c4ccccc34)C(=O)N[C@H](Cc3c[nH]c4ccccc34)C(=O)N[C@@H](CCCNC(=N)N)C(N)=O)C(C)C)C2=O)C1=O)NC(=O)[C@H](Cc1ccccc1)NC(=O)CNC(=O)[C@@H]1C[C@@H](O)CN1C(=O)[C@@H]1CCCN1C(=O)[C@H](CCCNC(=N)N)NC(=O)[C@H](N)CCCNC(=N)N)C(=O)N[C@@H](CCCNC(=N)N)C(=O)O (stereo partly shown) [CP-0411] (HELM PEPTIDE1{[dR].R.P.[Hyp].G.F.C.[dF].L.R}|PEPTIDE2{C.Y.[dW].V.[dW].[dW].R.[am]}|CHEM1{[O=C1CC([*:1])C(=O)N1CCCCCCN1C(=O)CC([*:2])C1=O]}$PEPTIDE1,CHEM1,7:R3-1:R1|PEPTIDE2,CHEM1,1:R3-1:R2$$$V2.0)	7.5 ± 0.1
CC(C)C[C@H](NC(=O)[C@@H](Cc1ccccc1)NC(=O)[C@H](CSC1CC(=O)N(CCCCCCN2C(=O)CC(SC[C@H](NC(=O)[C@@H](Cc3c[nH]c4ccccc34)NC(=O)[C@H](Cc3ccc(O)cc3)NC(=O)[C@@H](N)CC(=O)O)C(=O)N[C@H](Cc3c[nH]c4ccccc34)C(=O)N[C@H](Cc3c[nH]c4ccccc34)C(=O)N[C@@H](CCCNC(=N)N)C(N)=O)C2=O)C1=O)NC(=O)[C@H](Cc1ccccc1)NC(=O)CNC(=O)[C@@H]1C[C@@H](O)CN1C(=O)[C@@H]1CCCN1C(=O)[C@H](CCCNC(=N)N)NC(=O)[C@H](N)CCCNC(=N)N)C(=O)N[C@@H](CCCNC(=N)N)C(=O)O (stereo partly shown) [CP-0414] (HELM PEPTIDE1{[dR].R.P.[Hyp].G.F.C.[dF].L.R}|PEPTIDE2{D.Y.[dW].C.[dW].[dW].R.[am]}|CHEM1{[O=C1CC([*:1])C(=O)N1CCCCCCN1C(=O)CC([*:2])C1=O]}$PEPTIDE1,CHEM1,7:R3-1:R1|PEPTIDE2,CHEM1,4:R3-1:R2$$$V2.0)	7.8 ± 0.1
CC(C)C[C@H](NC(=O)[C@@H](Cc1ccccc1)NC(=O)[C@H](CSC1CC(=O)N(CCCCCCN2C(=O)CC(SC[C@H](NC(=O)[C@@H](NC(=O)[C@@H](Cc3c[nH]c4ccccc34)NC(=O)[C@H](Cc3ccc(O)cc3)NC(=O)[C@@H](N)CC(=O)O)C(C)C)C(=O)N[C@H](Cc3c[nH]c4ccccc34)C(=O)N[C@@H](CCCNC(=N)N)C(N)=O)C2=O)C1=O)NC(=O)[C@H](Cc1ccccc1)NC(=O)CNC(=O)[C@@H]1C[C@@H](O)CN1C(=O)[C@@H]1CCCN1C(=O)[C@H](CCCNC(=N)N)NC(=O)[C@H](N)CCCNC(=N)N)C(=O)N[C@@H](CCCNC(=N)N)C(=O)O (stereo partly shown) [CP-0415] (HELM PEPTIDE1{[dR].R.P.[Hyp].G.F.C.[dF].L.R}|PEPTIDE2{D.Y.[dW].V.C.[dW].R.[am]}|CHEM1{[O=C1CC([*:1])C(=O)N1CCCCCCN1C(=O)CC([*:2])C1=O]}$PEPTIDE1,CHEM1,7:R3-1:R1|PEPTIDE2,CHEM1,5:R3-1:R2$$$V2.0)	7.8 ± 0.1
CC(C)C[C@H](NC(=O)[C@@H](Cc1ccccc1)NC(=O)[C@H](CSC1CC(=O)N(CCCCCCN2C(=O)CC(SC[C@H](NC(=O)[C@@H](Cc3c[nH]c4ccccc34)NC(=O)[C@@H](NC(=O)[C@@H](Cc3c[nH]c4ccccc34)NC(=O)[C@H](Cc3ccc(O)cc3)NC(=O)[C@@H](N)CC(=O)O)C(C)C)C(=O)N[C@@H](CCCNC(=N)N)C(N)=O)C2=O)C1=O)NC(=O)[C@H](Cc1ccccc1)NC(=O)CNC(=O)[C@@H]1C[C@@H](O)CN1C(=O)[C@@H]1CCCN1C(=O)[C@H](CCCNC(=N)N)NC(=O)[C@H](N)CCCNC(=N)N)C(=O)N[C@@H](CCCNC(=N)N)C(=O)O (stereo partly shown) [CP-0416] (HELM PEPTIDE1{[dR].R.P.[Hyp].G.F.C.[dF].L.R}|PEPTIDE2{D.Y.[dW].V.[dW].C.R.[am]}|CHEM1{[O=C1CC([*:1])C(=O)N1CCCCCCN1C(=O)CC([*:2])C1=O]}$PEPTIDE1,CHEM1,7:R3-1:R1|PEPTIDE2,CHEM1,6:R3-1:R2$$$V2.0)	8.7 ± 0.2

biological target: T2, BK1 receptor (Oryctolagus cuniculus, UniProt P48748); experiment: rabbit aorta in vitro, reversal of des-Arg^9 -BK contraction; parameters: on rabbit aorta (BK1 -receptor) in vitro; from tissue; host or cells: rabbit aorta; details: negative log of molar concentration causing 50% reversal of des-Arg^9 -BK (10^-7 M) contraction
T2 sequence (P48748 1-352): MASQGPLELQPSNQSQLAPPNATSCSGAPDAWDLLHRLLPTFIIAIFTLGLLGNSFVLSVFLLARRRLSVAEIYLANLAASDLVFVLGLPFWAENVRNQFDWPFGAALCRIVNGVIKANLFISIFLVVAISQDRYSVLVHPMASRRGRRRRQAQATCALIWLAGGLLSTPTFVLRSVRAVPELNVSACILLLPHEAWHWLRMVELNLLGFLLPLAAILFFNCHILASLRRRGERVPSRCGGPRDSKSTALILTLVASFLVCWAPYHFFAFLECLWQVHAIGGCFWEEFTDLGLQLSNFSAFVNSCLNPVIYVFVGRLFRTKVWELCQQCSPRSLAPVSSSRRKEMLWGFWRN
Experimental: Each antagonist was then added, in a cumulative fashion, on top of the contraction and the negative log of the molar concentration of the antagonist causing a 50% reversal (IC50) of the […] measured.

SMILES	BK1 rabbit aorta IC50
CC(C)C[C@H](NC(=O)[C@@H](Cc1ccccc1)NC(=O)[C@H](CO)NC(=O)[C@H](Cc1ccccc1)NC(=O)CNC(=O)[C@@H]1C[C@@H](O)CN1C(=O)[C@@H]1CCCN1C(=O)[C@H](CCCNC(=N)N)NC(=O)[C@H](N)CCCNC(=N)N)C(=O)O [CP-0253, D R--R--P--J--G--F--S--D F--L] (HELM PEPTIDE1{[dR].R.P.[Hyp].G.F.S.[dF].L}$$$$V2.0; N-terminus and C-terminus assumed)	6.9 ± 0.1
CC(C)C[C@H](NC(=O)[C@@H](Cc1ccccc1)NC(=O)[C@H](CS)NC(=O)[C@H](Cc1ccccc1)NC(=O)CNC(=O)[C@@H]1C[C@@H](O)CN1C(=O)[C@@H]1CCCN1C(=O)[C@H](CCCNC(=N)N)NC(=O)[C@H](N)CCCNC(=N)N)C(=O)O [CP-0254, D R--R--P--J--G--F--C--D F--L] (HELM PEPTIDE1{[dR].R.P.[Hyp].G.F.C.[dF].L}$$$$V2.0; N-terminus and C-terminus assumed)	6.4 ± 0.1
N=C(N)NCCC[C@@H](N)C(=O)N[C@@H](CS)C(=O)N1CCC[C@H]1C(=O)N1C[C@H](O)C[C@H]1C(=O)NCC(=O)N[C@@H](Cc1ccccc1)C(=O)N[C@@H](CO)C(=O)N1Cc2ccccc2C[C@@H]1C(=O)N1[C@H](C(=O)O)C[C@@H]2CCCC[C@@H]21 [CP-0363, D R--C--P--J--G--F--S--D Tic--Oic] (HELM PEPTIDE1{[dR].C.P.[Hyp].G.F.S.[O=C([C@H]1Cc2ccccc2CN1[*:1])[*:2]].[O=C(O)[C@@H]1C[C@@H]2CCCC[C@@H]2N1[*:1]]}$$$$V2.0; N-terminus and C-terminus assumed)	6.2 ± 0.3
CC(C)C[C@H](NC(=O)[C@@H](Cc1ccccc1)NC(=O)[C@H](CO)NC(=O)[C@H](Cc1ccccc1)NC(=O)CNC(=O)[C@@H]1C[C@@H](O)CN1C(=O)[C@@H]1CCCN1C(=O)[C@H](CS)NC(=O)[C@H](N)CCCNC(=N)N)C(=O)O [CP-0376, D R--C--P--J--G--F--S--D F--L] (HELM PEPTIDE1{[dR].C.P.[Hyp].G.F.S.[dF].L}$$$$V2.0; N-terminus and C-terminus assumed)	4.9 ± 0.3
CC(C)C[C@H](NC(=O)[C@@H]1CCCN1C(=O)[C@H](CO)NC(=O)[C@H](Cc1ccccc1)NC(=O)CNC(=O)[C@@H]1C[C@@H](O)CN1C(=O)[C@@H]1CCCN1C(=O)[C@H](CCCCN)NC(=O)[C@H](N)CCCNC(=N)N)C(=O)O [CP-0388, D R--K--P--J--G--F--S--P--L] (HELM PEPTIDE1{[dR].K.P.[Hyp].G.F.S.P.L}$$$$V2.0; N-terminus and C-terminus assumed)	6.5 ± 0.1
